Usually melting point stands for the temperature, or range, at which the solid turns liquid.

Data on 46 compounds can be found in patent US8574607B2, “Spiroheterocyclic thiofuran dione derivatives” (Syngenta Crop Protection, Inc., priority 2009, dated 2013).

Molecules are shown by their SMILES. Where two headings read alike, the source gives them in different places.

Data set [1] concerns Myzus persicae (Green Peach Aphid). The data set is described as follows: Example B11: Myzus persicae, mixed population, feeding/residual contact activity (sprayed pepper plants). It is filed as in vivo. The settings on record: 144 h, spray chamber, 6 days after treatment, read-out: activity against Myzus persicae (mortality).
Data set [2] has the same test system. The settings on record: 144 h, read-out: activity (mortality).
Data set [3] shares this test system. The data set is described as follows: Example B1: Myzus persicae, mixed population, feeding/residual contact activity, preventive (sprayed sunflower leaf discs). The settings on record: foliar, 144 h, read-out: activity (mortality).
The test system of data set [4] is Tetranychus urticae (Two-Spotted Spider Mite). The settings on record: foliar, 192 h, read-out: activity (egg, larval and adult mortality).
Data set [5] deals with Aphis craccivora (Cowpea Aphid). The data set is described as follows: Example B8: Aphis craccivora, mixed population, systemic/feeding (roots of pea seedlings in test solution). The following applies: 144 h, 25 ppm, roots in test solution, 6 days, read-out: activity (mortality). It is filed as in vivo. An excerpt:
Activity Against Aphis craccivora (Cowpea Aphid)
(Mixed Population, Systemic/Feeding)
6 days later, samples are checked for mortality.

The subject of data set [6] is Nilaparvata lugens (Brown Rice Planthopper). Put plainly: Example B6: Nilaparvata lugens, larvicide, feeding/contact (rice seedlings). The following applies: in Oryza sativa, read-out: activity (mortality, growth regulation, effects on F1 generation).
Data set [7] has as its system Myzus persicae (Green Peach Aphid). The data set is described as follows: Example B10: drench activity against Myzus persicae (pea seedlings in field soil). The following applies: 168 h, read-out: drench activity (mortality).
For data set [8], the system named is Thrips tabaci (Onion Thrips). The settings on record: foliar, 144 h, read-out: activity (mortality).

For the compound `CCOC(=O)OC1=C(c2cc(C)ccc2C)C(=O)OC12CCN(OC)CC2` [P1.1, Carbonic acid 3-(2,5-dimethyl-phenyl)-8-methoxy-2-oxo-1-oxa-8-aza-spiro[4.5]dec-3-en-4-yl ester ethyl ester], the mortality at 200 ppm in [1] is not below 80%. For the same compound, in [2], the mortality at 400 ppm was more than 80%.
On to `CON1CCC2(CC1)OC(=O)C(c1cc(C)ccc1C)=C2OC(=O)C(C)(C)C` [P1.2], for which the mortality at 400 ppm in data set [3] and in [2] was more than 80% throughout.
Consider `CCOC(=O)OC1=C(c2cc(C)c(C)cc2C)C(=O)OC12CCN(OC)CC2` [P1.3], for which the mortality at 200 ppm in [1] was not below 80%. For the same compound, the mortality at 400 ppm in data set [3] and in data set [2] was more than 80% each time.
As to `CON1CCC2(CC1)OC(=O)C(c1cc(C)c(C)cc1C)=C2OC(=O)C(C)(C)C` [P1.4], in data set [1], the mortality at 200 ppm was not below 80%. In addition, the mortality at 400 ppm in [3] and in [2] was more than 80% each time.
As to `CCOC(=O)OC1=C(c2c(C)cc(C)cc2C)C(=O)OC12CCN(OC)CC2` [P1.5, Carbonic acid ethyl ester 8-methoxy-2-oxo-3-(2,4,6-trimethylphenyl)-1-oxa-8-aza-spiro[4.5]dec-3-en-4-yl ester], the mortality at 400 ppm in data set [3] and in [2] was more than 80% each time.
In the case of `CON1CCC2(CC1)OC(=O)C(c1c(C)cc(C)cc1C)=C2OC(=O)C(C)(C)C` [P1.6], in data set [1], the mortality at 200 ppm was not below 80%. Moreover, the mortality at 400 ppm in data set [3] and in data set [2] was more than 80% each time.
Take `CCOC(=O)OC1=C(c2c(C)cc(C)cc2C)C(=O)SC12CCN(OC)CC2` [P1.7, Carbonic acid ethyl ester 8-methoxy-2-oxo-3-(2,4,6-trimethylphenyl)-1-thia-8-aza-spiro[4.5]dec-3-en-4-yl ester]: the mortality at 400 ppm in data set [3] was more than 80%.
Turning to `CCOC(=O)OC1=C(c2c(C)cc(Br)cc2C)C(=O)OC12CCN(OC)CC2` [P1.8], the mortality at 400 ppm in [2] is more than 80%.
Take `CON1CCC2(CC1)OC(=O)C(c1c(C)cc(C)cc1C)=C2OC(=O)CC(C)(C)C` [P1.9]: the mortality at 400 ppm in data set [3] and in data set [2] was more than 80% in each case.
On to `CCC(C)(C)C(=O)OC1=C(c2c(C)cc(C)cc2C)C(=O)OC12CCN(OC)CC2` [P1.10], for which the mortality at 400 ppm in data set [4], in data set [3] and in [2] was more than 80% throughout.
Take `CCOC(=O)OC1=C(c2c(C)cc(Cl)cc2C)C(=O)OC12CCN(OC)CC2` [P1.11]: the mortality at 25 ppm in [5] and in data set [7] was more than 80% throughout. The mortality at 200 ppm in data set [1] is not below 80%. Besides, the mortality at 400 ppm in [6], in [4], in data set [3] and in [2] was more than 80% throughout.
As for `C=Cc1cc(C)c(C2=C(OC(=O)OCC)C3(CCN(OC)CC3)OC2=O)c(C)c1` [P1.12], in data set [2], the mortality at 400 ppm was more than 80%.
`CCOC(=O)OC1=C(c2ccc(C)cc2C)C(=O)OC12CCN(OC)CC2` [P1.13]: the mortality at 200 ppm in data set [1] is not below 80%. Moreover, the mortality at 400 ppm in data set [8], in data set [3] and in data set [2] was more than 80% in each case.
Consider `CCOC(=O)OC1=C(c2ccc(Cl)cc2Cl)C(=O)OC12CCN(OC)CC2` [P1.14], for which the mortality at 400 ppm in [3] and in [2] was more than 80% each time.
Turning to `CCOC(=O)OC1=C(c2c(C)ccc(Cl)c2C)C(=O)OC12CCN(OC)CC2` [P1.15], the mortality at 400 ppm in data set [4] is more than 80%.
As to `CCOC(=O)OC1=C(c2cc(C)ccc2OC)C(=O)OC12CCN(OC)CC2` [P1.16], the melting point was in the range of 81 to 83 °C.
For the compound `CCOC(=O)OC1=C(c2c(C)cc(C)cc2C)C(=O)OC12CCN(OCC)CC2` [P1.17], the mortality at 400 ppm in [8], in data set [4], in data set [3] and in [2] was more than 80% throughout.
Consider `CCOC(=O)OC1=C(c2c(C)cc(C)c(Cl)c2C)C(=O)OC12CCN(OC)CC2` [P1.18], for which the mortality at 400 ppm in data set [2] is more than 80%.
With `CCOC(=O)OC1=C(c2c(C)cc(C)cc2C)C(=O)OC12CCN(OCCOC)CC2` [P1.19], the mortality at 400 ppm in [4] and in data set [2] was more than 80% throughout.
Consider `CCOC(=O)OC1=C(c2c(F)ccc(Br)c2Cl)C(=O)OC12CCN(OC)CC2` [P1.29], for which, in data set [4], the mortality at 400 ppm is more than 80%.
Turning to `CCOC(=O)OC1=C(c2c(Cl)cc(Br)cc2Cl)C(=O)OC12CCN(OC)CC2` [P1.30], the melting point is 122 to 125 °C.
Regarding `CCOC(=O)OC1=C(c2cc(C)c(Cl)cc2C)C(=O)OC12CCN(OC)CC2` [P1.33], the mortality at 400 ppm in [2] is more than 80%.
For `CCOC(=O)OC1=C(c2c(C)cc(C)cc2C2CC2)C(=O)OC12CCN(OC)CC2` [P1.34], the mortality at 400 ppm in [4] and in [2] was more than 80% in each case.
Compound `CCOC(=O)OC1=C(c2c(C)cc(C)c(Br)c2C)C(=O)OC12CCN(OC)CC2` [P1.39] came in with a melting point of 52 to 54 °C.
`CCOC(=O)OC1=C(c2c(C)cccc2C)C(=O)OC12CCN(OC)CC2` [P1.40] displayed a melting point of 93 to 94 °C.
On to `CON1CCC2(CC1)OC(=O)C(c1cc(C)ccc1C)=C2O` [P2.1, 3-(2,5-dimethyl-phenyl)-4-hydroxy-8-methoxy-1-oxa-8-aza-spiro[4.5]dec-3-en-2-one], for which the mortality at 200 ppm in data set [1] is not below 80%. Besides, the mortality at 400 ppm in data set [3] and in [2] was more than 80% throughout.
With `CON1CCC2(CC1)OC(=O)C(c1cc(C)c(C)cc1C)=C2O` [P2.2, 4-Hydroxy-8-methoxy-3-(2,4,5-trimethyl-phenyl)-1-oxa-8-aza-spiro[4.5]dec-3-en-2-one], the mortality at 200 ppm in data set [1] was not below 80%. Besides, the mortality at 400 ppm in data set [8], in data set [3] and in [2] was more than 80% in each case.
In the case of `CON1CCC2(CC1)SC(=O)C(c1c(C)cc(C)cc1C)=C2O` [P2.4, 4-hydroxy-8-methoxy-3-(2,4,6-trimethyl-phenyl)-1-thia-8-aza-spiro[4.5]dec-3-en-2-one], the mortality at 400 ppm in data set [4] and in data set [3] was more than 80% throughout.
In the case of `CON1CCC2(CC1)OC(=O)C(c1c(C)cc(Br)cc1C)=C2O` [P2.5], the mortality at 400 ppm in [3] and in [2] was more than 80% each time.
On to `CON1CCC2(CC1)OC(=O)C(c1c(C)cc(Cl)cc1C)=C2O` [P2.6], for which the mortality at 400 ppm in data set [4] and in data set [3] was more than 80% each time.
As for `C=Cc1cc(C)c(C2=C(O)C3(CCN(OC)CC3)OC2=O)c(C)c1` [P2.7], the mortality at 400 ppm in data set [3] and in data set [2] was more than 80% each time.
For `CON1CCC2(CC1)OC(=O)C(c1ccc(C)cc1C)=C2O` [P2.8], the mortality at 200 ppm in [1] is not below 80%. The mortality at 400 ppm in data set [3] and in data set [2] was more than 80% throughout.
As for `CON1CCC2(CC1)OC(=O)C(c1ccc(Cl)cc1Cl)=C2O` [P2.9], in data set [4], the mortality at 400 ppm was more than 80%.
`CCON1CCC2(CC1)OC(=O)C(c1c(C)cc(C)cc1C)=C2O` [P2.12]: the mortality at 400 ppm in [8], in [4], in [3] and in data set [2] was more than 80% throughout.
With `CON1CCC2(CC1)OC(=O)C(c1c(C)cc(C)c(Cl)c1C)=C2O` [P2.13], the mortality at 400 ppm in [4] and in data set [2] was more than 80% in each case.
As to `COCCON1CCC2(CC1)OC(=O)C(c1c(C)cc(C)cc1C)=C2O` [P2.14], the mortality at 400 ppm in data set [8] and in data set [4] was more than 80% in each case.
Turning to `CON1CCC2(CC1)OC(=O)C(c1ccc(F)cc1)=C2O` [P2.20], the mortality at 400 ppm in data set [4] is more than 80%.
`COc1ccccc1C1=C(O)C2(CCN(OC)CC2)OC1=O` [P2.34]: the mortality at 400 ppm in data set [3] is more than 80%.
On to `CON1CCC2(CC1)OC(=O)C(c1ccc(Cl)cc1)=C2O` [P2.35], for which the mortality at 400 ppm in [4] is more than 80%.
For `COc1c(Cl)cccc1C1=C(O)C2(CCN(OC)CC2)OC1=O` [P2.37], the mortality at 400 ppm in data set [3] was more than 80%.
For `CON1CCC2(CC1)OC(=O)C(c1c(Br)cc(C)cc1Br)=C2O` [P2.40], the mortality at 400 ppm in [4] is more than 80%.
Turning to `CON1CCC2(CC1)OC(=O)C(c1c(C)cc(Br)cc1Cl)=C2O` [P2.47], in data set [1], the mortality at 200 ppm is not below 80%.
Same read-out and setting: in the case of `CON1CCC2(CC1)OC(=O)C(c1cc(C)c(Cl)cc1C)=C2O` [P2.48] it was not below 80%.
In the case of `CON1CCC2(CC1)OC(=O)C(c1c(C)cc(C)cc1C1CC1)=C2O` [P2.49], the mortality at 400 ppm in data set [4], in data set [3] and in data set [2] was more than 80% each time.
For `C=Cc1cc(C)cc(C)c1C1=C(O)C2(CCN(OC)CC2)OC1=O` [P2.50], the mortality at 400 ppm in data set [3] and in data set [2] was more than 80% in each case.
As for `CCc1cc(C)cc(C)c1C1=C(O)C2(CCN(OC)CC2)OC1=O` [P2.51], the mortality at 400 ppm in data set [4], in data set [3] and in data set [2] was more than 80% each time.
